Experimental findings from paper PMC9117149, “USP14-regulated allostery of the human proteasome by time-resolved cryo-EM” (Nature, 2022) are described below.

Numbered stars: 1 amine (or outer) side, 2 acyl side, 3 side chain; on linkers, the order of the positions; unused ones are H or OH. Peptide text beside a SMILES is read from it. * marks the point of attachment. AMC = Cc1cc(=O)oc2cc(N*)ccc12; Suc = O=C(CCC(=O)[*:2])[*:1]

The target in test [1] is T1, human 26S proteasome (peptidase activity) (Homo sapiens, UniProt P28074).
T1 construct: gene PSMB5; 20S core particle; with Proteasome subunit beta type-1; Proteasome subunit beta type-2; Proteasome subunit beta type-3; Proteasome subunit beta type-4; Proteasome subunit beta type-6; Proteasome subunit beta type-7
T1 sequence (P28074 60-263): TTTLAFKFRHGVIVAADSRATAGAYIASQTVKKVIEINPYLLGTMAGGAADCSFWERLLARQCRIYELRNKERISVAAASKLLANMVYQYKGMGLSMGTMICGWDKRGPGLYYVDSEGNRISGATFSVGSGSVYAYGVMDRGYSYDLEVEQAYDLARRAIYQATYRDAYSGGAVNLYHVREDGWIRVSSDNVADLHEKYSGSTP
As to the kind of experiment: AMC fluorescence. The following applies: 10 μM substrate, 0.1 mM ATP, 0.5 mM MgCl2, 100 mM KCl, pH 7.5, 37 °C; USP14-free (also with USP14 variants). The class given is biochemical.

Test [2] relates to T2, human 26S proteasome, AAA-ATPase motor (RPT1-RPT6).
T2 construct: gene PSMC2
T2 sequence (P35998 2-433): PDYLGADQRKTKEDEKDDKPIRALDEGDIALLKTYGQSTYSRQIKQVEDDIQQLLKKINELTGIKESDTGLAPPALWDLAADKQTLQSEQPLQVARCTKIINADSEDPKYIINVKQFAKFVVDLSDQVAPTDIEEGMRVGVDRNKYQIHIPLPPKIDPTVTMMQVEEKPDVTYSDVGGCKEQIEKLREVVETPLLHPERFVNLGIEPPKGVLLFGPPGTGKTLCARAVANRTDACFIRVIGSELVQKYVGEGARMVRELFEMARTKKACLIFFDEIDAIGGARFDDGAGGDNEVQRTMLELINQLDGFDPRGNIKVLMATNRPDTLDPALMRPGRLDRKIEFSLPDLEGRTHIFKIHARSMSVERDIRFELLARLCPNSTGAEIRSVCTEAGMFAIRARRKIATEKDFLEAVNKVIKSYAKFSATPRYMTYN
T2 sequence (P62191 2-440, further chain): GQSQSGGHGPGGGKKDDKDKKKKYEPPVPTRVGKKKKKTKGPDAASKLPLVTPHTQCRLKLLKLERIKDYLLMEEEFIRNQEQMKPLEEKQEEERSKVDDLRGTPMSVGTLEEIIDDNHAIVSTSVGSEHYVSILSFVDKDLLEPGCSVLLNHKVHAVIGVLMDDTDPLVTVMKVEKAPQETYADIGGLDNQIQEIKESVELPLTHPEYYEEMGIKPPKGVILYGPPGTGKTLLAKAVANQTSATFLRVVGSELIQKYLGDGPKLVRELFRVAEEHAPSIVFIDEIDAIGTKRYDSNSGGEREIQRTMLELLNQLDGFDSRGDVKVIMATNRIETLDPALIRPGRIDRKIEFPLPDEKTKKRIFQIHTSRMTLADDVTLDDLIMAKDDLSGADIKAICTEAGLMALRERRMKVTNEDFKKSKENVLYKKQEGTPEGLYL
T2 sequence (P43686 whole entry, further chain): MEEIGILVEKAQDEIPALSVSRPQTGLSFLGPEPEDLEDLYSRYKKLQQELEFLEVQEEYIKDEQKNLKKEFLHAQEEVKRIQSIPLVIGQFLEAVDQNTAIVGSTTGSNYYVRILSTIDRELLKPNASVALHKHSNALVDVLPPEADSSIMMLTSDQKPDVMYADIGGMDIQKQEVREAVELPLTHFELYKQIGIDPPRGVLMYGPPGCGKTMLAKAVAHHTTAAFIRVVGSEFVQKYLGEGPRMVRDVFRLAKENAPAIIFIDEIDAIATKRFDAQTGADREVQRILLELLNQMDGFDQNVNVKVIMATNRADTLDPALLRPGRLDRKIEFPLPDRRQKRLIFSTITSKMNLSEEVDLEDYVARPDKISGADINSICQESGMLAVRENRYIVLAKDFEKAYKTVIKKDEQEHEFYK
T2 sequence (P62333 whole entry, further chain): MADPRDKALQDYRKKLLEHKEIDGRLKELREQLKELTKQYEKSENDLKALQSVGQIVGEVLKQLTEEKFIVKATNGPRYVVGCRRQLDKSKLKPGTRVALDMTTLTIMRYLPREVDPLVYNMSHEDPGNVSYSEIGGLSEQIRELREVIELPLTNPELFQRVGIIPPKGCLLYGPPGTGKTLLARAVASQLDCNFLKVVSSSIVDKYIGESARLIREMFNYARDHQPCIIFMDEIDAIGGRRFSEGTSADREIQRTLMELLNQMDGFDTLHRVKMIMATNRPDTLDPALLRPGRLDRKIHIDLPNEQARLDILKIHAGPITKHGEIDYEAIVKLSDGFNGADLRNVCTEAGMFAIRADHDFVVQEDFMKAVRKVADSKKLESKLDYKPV
T2 sequence (P17980 whole entry, further chain): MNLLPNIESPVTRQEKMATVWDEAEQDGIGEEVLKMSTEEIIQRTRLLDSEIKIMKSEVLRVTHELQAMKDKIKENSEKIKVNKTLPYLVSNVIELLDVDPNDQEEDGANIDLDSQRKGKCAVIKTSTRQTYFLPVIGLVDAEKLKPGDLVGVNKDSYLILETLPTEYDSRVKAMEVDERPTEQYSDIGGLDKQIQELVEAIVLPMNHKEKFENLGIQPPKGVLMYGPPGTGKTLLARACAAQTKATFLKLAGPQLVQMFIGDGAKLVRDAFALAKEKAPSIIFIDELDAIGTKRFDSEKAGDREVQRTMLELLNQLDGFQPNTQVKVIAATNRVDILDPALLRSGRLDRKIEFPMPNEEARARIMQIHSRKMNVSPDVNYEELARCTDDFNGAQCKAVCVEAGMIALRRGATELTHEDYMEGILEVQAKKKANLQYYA
T2 sequence (P62195 2-406, further chain): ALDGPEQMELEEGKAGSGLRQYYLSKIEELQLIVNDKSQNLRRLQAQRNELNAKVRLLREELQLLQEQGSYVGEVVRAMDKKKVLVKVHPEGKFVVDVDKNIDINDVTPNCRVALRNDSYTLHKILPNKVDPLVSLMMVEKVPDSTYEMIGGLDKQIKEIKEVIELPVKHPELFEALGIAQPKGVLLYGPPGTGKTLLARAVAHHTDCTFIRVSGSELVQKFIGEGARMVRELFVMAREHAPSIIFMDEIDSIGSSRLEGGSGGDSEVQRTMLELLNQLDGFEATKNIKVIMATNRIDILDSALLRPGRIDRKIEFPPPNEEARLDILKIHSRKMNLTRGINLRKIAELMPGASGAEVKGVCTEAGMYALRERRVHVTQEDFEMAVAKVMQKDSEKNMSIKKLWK
The following applies: 0.5 mM ATP, 5 mM MgCl2, pH 7.5, 37 °C, with 300 nM Ubn-Sic1PY and RPN13; USP14-free.

Consider `Cc1cc(=O)oc2cc(NC(=O)[C@H](Cc3ccc(O)cc3)NC(=O)[C@@H](NC(=O)[C@H](CC(C)C)NC(=O)[C@H](CC(C)C)NC(=O)CCC(=O)O)C(C)C)ccc12` [Suc-LLVY-AMC] (Suc-LLVY-{AMC}), for which the AMC fluorescence result in test [1] is listed as “Peptide hydrolysis by the human proteasomes was measured using fluorogenic substrate Suc-LLVY-AMC”. Turning to `Nc1ncnc2c1ncn2[C@@H]1O[C@H](COP(=O)(O)OP(=O)(O)OP(=O)(O)O)[C@@H](O)[C@H]1O` [ATP], the “malachite green phosphate release” value in test [2] was “ATPase activity was quantified using malachite green phosphate assay kits”.
